Values of other authors as cited in PMC5748270 (Organic & biomolecular chemistry, 2017).

What was measured:
B16 melanoma = details: comparably to mitomycin C
Plasmodium falciparum K1 = details: selectivity on par with artesunate
HSV-1 = details: read-out: HSV-1 antiviral EC50

## O=c1c(O)cccc(O)c1O [3,7-dHT, 3,7-Dihydroxytropolones]
HIV
  cell-based HIV antiviral activity: promising cell-based HIV antiviral activity
B16 melanoma cells
  Activity against B16 melanoma cells relative to αHTs: an order of magnitude greater than αHTs
B16 melanoma
  Lifespan of mice bearing B16 melanoma: increases the lifespan

## Nc1nc2c(ncn2COCCO)c(=O)[nH]1 [ACV, acyclovir]
HSV-2; obtained previously under identical conditions
  Potency against HSV-2 relative to HSV-1: nearly an order of magnitude less potent

## O=C(O)c1cc(O)c(O)c(=O)c(O)c1 [puberulic acid]
Plasmodium falciparum K1
  Antimalarial activity: potent antimalarial activity

## manicol
HSV-1
  EC50: 0.35 µM
HSV-2; read-out: HSV-2 antiviral EC50
  EC50: 0.58 µM
